{
  "source": "patent US5369095A",
  "about": "“Compositions and method comprising substituted glycosides as mucus membrane permeation enhancers” (priority 1993, dated 1994)",
  "key": {"[1]": {"experiment": "Penetration of para-aminoclonidine through the cornea: amount in aqueous humor after topical dosing, liquid scintillation counting", "assay_type": "in vivo, New Zealand albino rabbits", "conditions": "60 minutes; 0.125% para-amino-clonidine with 0.05% dodecyl maltoside versus drug without dodecyl maltoside; 30 ul topical", "description": "Nine New Zealand albino rabbits were selected for evaluation of the penetration through the cornea of the para-amino-clonidine formulation set forth above. All rabbits received 30 ul of the 0.125% para-amino-clonidinetopically in both eyes. Three rabbits were sacrificed at 20 minutes from dosing and aqueous humor was withdrawn from their eyes. The aqueous humor as assayed by liquid scintillation counting to determine the amount of para-amino-clonidine in the aqueous humor. The same procedure was done on 3 different rabbits at 60 minutes from dosing and on another 3 rabbits, 120 minutes from dosing. […] Aqueous humor was withdrawn and assayed as explained above.\nNine New Zealand albino rabbits were selected for evaluation of the penetration through the cornea of the para-amino-clonidine formulation set forth above. All rabbits received 30 ul of the 0.125% para-amino-clonidinetopically in both eyes. Three rabbits were sacrificed at 20 minutes from dosing and their aqueous humor was withdrawn from their eyes. The aqueous humor was assayed by liquid scintillation counting to determine the amount of para-amino-clonidine in the aqueous humor. The same procedure was done on three different rabbits at 60 minutes from dosing and on another three rabbits, 120 minutes from dosing. […] Aqueous humor was withdrawn and assayed as explained above."}, "[2]": {"experiment": "Apparent permeability coefficient through excised cornea mounted between diffusion cells", "assay_type": "in vitro ADME, Albino rabbits", "protocol": "Albino rabbits were sacrificed, and within 15 minutes, the corneas were mounted and clamped between diffusion cells according to the published procedure by Schoenwald et al. (J. Pharm. Sci. 72, 1266, 1983). 7 ml of bicarbonated Ringer's solution containing reduced glutathione was added to the endothelial side to serve as the receiver solution. An equal volume of the same solution containing Atenolol, a β-blocker, with or without dodecyl maltoside (DDM) was added to the epithelial side to serve as the donor solution. The apparent permeability coefficient was calculated from the average cumulative amount of drug penetrating through the cornea over time according to Schoenwald.\nThe procedure in Example 8 was repeated with the following para-amino clonidine formulations.\nThe procedure of Example 8 was repeated with Atenolol except dodecyl maltoside was substituted with 0.1% amount by weight of each of the following substituted glycosides of this invention and the following results were obtained."}},
  "data": [
    {"compound": "CCCCCCCCCCCCO[C@@H]1O[C@H](CO)[C@@H](O[C@H]2O[C@H](CO)[C@@H](O)[C@H](O)[C@H]2O)[C@H](O)[C@H]1O", "note": "[dodecyl maltoside, Dodecyl maltoside]", "values": [
      {"measurement": "increase in the amount of para-aminoclonidine found in the aqueous humor", "setting": "[1]", "value": "four"},
      {"measurement": "permeation for para-amino clonidine as compared to control", "setting": "[2]", "value": "superior permeation"}
    ]},
    {"compound": "Lysophosphatidyl Inositol", "values": [
      {"measurement": "Permeability Coefficient", "setting": "[2]; rabbit", "value": 14.0, "unit": "cm/sec × 10^-6"}
    ]}
  ]
}
